Test results reported in ChEMBL document CHEMBL1201862, “PubChem BioAssay data set” (2004).
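In this assay, cells in 96-well plates receive the compound at five concentrations for 48 hours. Endpoints are linearly interpolated between the surrounding concentrations. GI50 marks 50% less growth.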 The source made the active and inactive calls. Rule as the data show it: active = GI50 up to about 1.1 µM and inactive = higher.

Legend:
Experiment in all cases: NCI anticancer screen, dose series, 48 h
UACC-257 = tested on: UACC-257
SF-539 = tested on: SF-539
SR = tested on: SR
Hs-578T = tested on: Hs-578T
MDA-MB-231 = tested on: MDA-MB-231
A549 = tested on: A549
SF-295 = tested on: SF-295
COLO 205 = tested on: COLO 205
HT-29 = tested on: HT-29
NCI-H460 = tested on: NCI-H460
HCC 2998 = tested on: HCC 2998
NCI/ADR-RES = tested on: NCI/ADR-RES
NCI-H522 = tested on: NCI-H522
OVCAR-8 = tested on: OVCAR-8
NCI-H226 = tested on: NCI-H226
SW-620 = tested on: SW-620
SK-MEL-5 = tested on: SK-MEL-5
HOP-92 = tested on: HOP-92
EKVX = tested on: EKVX

| SMILES | GI50 (UACC-257) | GI50 (SF-539) | GI50 (SR) | GI50 (Hs-578T) | GI50 (MDA-MB-231) | GI50 (A549) | GI50 (SF-295) | GI50 (COLO 205) | GI50 (HT-29) | GI50 (NCI-H460) | GI50 (HCC 2998) | GI50 (NCI/ADR-RES) | GI50 (NCI-H522) | GI50 (OVCAR-8) | GI50 (NCI-H226) | GI50 (SW-620) | GI50 (SK-MEL-5) | GI50 (HOP-92) | GI50 (EKVX) |
| --- | --- | --- | --- | --- | --- | --- | --- | --- | --- | --- | --- | --- | --- | --- | --- | --- | --- | --- | --- |
| CCOC(CN(C)C(=O)Nc1ccc(Cl)c(Cl)c1)OCC | > 10 µM (inactive) | > 10 µM (inactive) | > 10 µM (inactive) | > 10 µM (inactive) | > 10 µM (inactive) | > 10 µM (inactive) | > 10 µM (inactive) | > 10 µM (inactive) | > 10 µM (inactive) | > 10 µM (inactive) | > 10 µM (inactive) | > 10 µM (inactive) | > 10 µM (inactive) | > 10 µM (inactive) | > 10 µM (inactive) | > 10 µM (inactive) | > 10 µM (inactive) | > 10 µM (inactive) | > 10 µM (inactive) |
| Oc1c(N2CCOCC2)cc(-c2cc(N3CCOCC3)c(O)c3ccccc23)c2ccccc12 | 2.29 µM (inactive) | 2.09 µM (inactive) | 0.659 µM (active) | 3.44 µM (inactive) | 1.24 µM (inactive) | 2.26 µM (inactive) | 1.71 µM (inactive) | 1.93 µM (inactive) | 2.16 µM (inactive) | 2.83 µM (inactive) | 2.04 µM (inactive) | 3.13 µM (inactive) | 2.23 µM (inactive) | 1.6 µM (inactive) | 10.1 µM (inactive) | 2.04 µM (inactive) | 0.422 µM (active) |  | 11.7 µM (inactive) |
| CC(=O)N1N=C(c2cc(C)ccc2O)CC1c1cccc(Cl)c1 (stereo not given) | 14.2 µM (inactive) | 19.2 µM (inactive) | 1.83 µM (inactive) | 12.9 µM (inactive) | 17.5 µM (inactive) | 11.8 µM (inactive) | 10.9 µM (inactive) | 6.93 µM (inactive) | 6.97 µM (inactive) | 8.85 µM (inactive) |  | 6.03 µM (inactive) | 3.07 µM (inactive) | 27.4 µM (inactive) | 16.1 µM (inactive) | 7.74 µM (inactive) | 11.7 µM (inactive) | 3.17 µM (inactive) | 24.1 µM (inactive) |
| CN1CCOC1c1ccccc1O (stereo not given) | > 100 µM (inactive) | > 100 µM (inactive) | > 100 µM (inactive) | > 100 µM (inactive) | > 100 µM (inactive) | > 100 µM (inactive) | > 100 µM (inactive) | > 100 µM (inactive) | > 100 µM (inactive) | > 100 µM (inactive) |  | > 100 µM (inactive) | > 100 µM (inactive) | > 100 µM (inactive) | > 100 µM (inactive) | > 100 µM (inactive) | > 100 µM (inactive) | > 100 µM (inactive) | > 100 µM (inactive) |
| COc1cc2nc(-c3cccs3)oc(=O)c2cc1OC | > 100 µM (inactive) | 57.3 µM (inactive) | > 100 µM (inactive) | 72.1 µM (inactive) | 74.8 µM (inactive) | > 100 µM (inactive) | > 100 µM (inactive) | > 100 µM (inactive) | > 100 µM (inactive) | > 100 µM (inactive) |  | 51.2 µM (inactive) | > 100 µM (inactive) | 53.1 µM (inactive) | 50.7 µM (inactive) | > 100 µM (inactive) | > 100 µM (inactive) | > 100 µM (inactive) | > 100 µM (inactive) |
| N#CC(C(=O)O)C(c1c(Cl)cccc1Cl)C(C#N)C(=O)O (stereo not given) | > 100 µM (inactive) | > 100 µM (inactive) | > 100 µM (inactive) | > 100 µM (inactive) | > 100 µM (inactive) | > 100 µM (inactive) | > 100 µM (inactive) | > 100 µM (inactive) | > 100 µM (inactive) | > 100 µM (inactive) |  | > 100 µM (inactive) | > 100 µM (inactive) | > 100 µM (inactive) | > 100 µM (inactive) | > 100 µM (inactive) | > 100 µM (inactive) | > 100 µM (inactive) | > 100 µM (inactive) |
| C/C=C/C[C@@H](C)C(=O)C1C(=O)N[C@@H](C(C)C)C(=O)N(C)CC(=O)N(C)[C@@H](CC(C)C)C(=O)N[C@@H](C(C)C)C(=O)N(C)[C@@H](CC(C)C)C(=O)N[C@@H](C)C(=O)N[C@@H](C)C(=O)N(C)[C@@H](CC(C)C)C(=O)N(C)[C@@H](CC(C)C)C(=O)N(C)[C@@H](C(C)C)C(=O)N1C (stereo not given in full) | 5.33 µM (inactive) | 4.23 µM (inactive) | 4.07 µM (inactive) | 6.21 µM (inactive) | 6.17 µM (inactive) | 3.97 µM (inactive) | 7.28 µM (inactive) |  | 3.8 µM (inactive) | 6.01 µM (inactive) | 2.46 µM (inactive) | 2.74 µM (inactive) | 4.19 µM (inactive) | 9.82 µM (inactive) | 6.11 µM (inactive) | 5.24 µM (inactive) | 2.99 µM (inactive) | 7.26 µM (inactive) | 8.51 µM (inactive) |
| C=C(Cl)/C(=C\Br)CCC(Cl)C(C)C.C=C(Cl)/C(=C\Cl)CCC(Cl)C(C)C (stereo not given) | 13.6 µM (inactive) | 18.2 µM (inactive) | 6.53 µM (inactive) | 11.9 µM (inactive) | 16.5 µM (inactive) | 28 µM (inactive) | 18.8 µM (inactive) | 26.3 µM (inactive) | 17.7 µM (inactive) | 18.1 µM (inactive) | 18.7 µM (inactive) | 27.5 µM (inactive) | 4.73 µM (inactive) |  | 23.4 µM (inactive) | 2.75 µM (inactive) | 13.9 µM (inactive) | 15 µM (inactive) | 18.7 µM (inactive) |
| CCCCCCCCCCCCCCCCCc1nc(Cl)nc(Cl)c1Cl |  | > 100 µM (inactive) | 52.2 µM (inactive) | > 100 µM (inactive) | > 100 µM (inactive) | > 100 µM (inactive) | > 100 µM (inactive) | > 100 µM (inactive) | > 100 µM (inactive) | > 100 µM (inactive) | > 100 µM (inactive) | > 100 µM (inactive) | > 100 µM (inactive) | > 100 µM (inactive) | 15.6 µM (inactive) | > 100 µM (inactive) | 17.3 µM (inactive) | > 100 µM (inactive) |  |
| O=C(CCCN1CCC(O)(c2ccc(Cl)cc2)CC1)c1ccc(F)cc1 [HALOPERIDOL] | 20.9 µM (inactive) | 26.1 µM (inactive) | 48.1 µM (inactive) | 25.4 µM (inactive) | 22 µM (inactive) | 42.8 µM (inactive) | 15.6 µM (inactive) | 18.6 µM (inactive) | 18.8 µM (inactive) | 18.8 µM (inactive) |  | 30.1 µM (inactive) | 20.6 µM (inactive) | 32.7 µM (inactive) | 32.2 µM (inactive) | 18.2 µM (inactive) | 15.9 µM (inactive) | 48.2 µM (inactive) | 82.4 µM (inactive) |
| CCOC(=O)C1=[N+]([O-])OC2=C(O)CCCC21 (stereo not given) | > 100 µM (inactive) |  | > 100 µM (inactive) | > 100 µM (inactive) | > 100 µM (inactive) | > 100 µM (inactive) | > 100 µM (inactive) | > 100 µM (inactive) | > 100 µM (inactive) | > 100 µM (inactive) | > 100 µM (inactive) | > 100 µM (inactive) | > 100 µM (inactive) | > 100 µM (inactive) | > 100 µM (inactive) | > 100 µM (inactive) | > 100 µM (inactive) | > 100 µM (inactive) | > 100 µM (inactive) |
| Oc1nc(-c2ccc3ccccc3c2)nc2ccccc12 | 74.6 µM (inactive) |  | 20.4 µM (inactive) | 24.3 µM (inactive) | 29 µM (inactive) | 26.9 µM (inactive) | 23.4 µM (inactive) | > 100 µM (inactive) | 57.7 µM (inactive) | 21.9 µM (inactive) | 62.5 µM (inactive) | 20 µM (inactive) | 73.8 µM (inactive) | 12.7 µM (inactive) | 12.6 µM (inactive) | > 100 µM (inactive) | > 100 µM (inactive) | 17.4 µM (inactive) | 43.5 µM (inactive) |
| C#C[C@]1(O)CC[C@H]2[C@@H]3CCC4=C/C(=N/OCCN(C)C)CC[C@]4(C)[C@H]3CC[C@@]21C | 52.5 µM (inactive) |  | 12.1 µM (inactive) | 26.9 µM (inactive) | 39.9 µM (inactive) | 31.7 µM (inactive) | 6.97 µM (inactive) | 26.7 µM (inactive) | 6.78 µM (inactive) | 21.8 µM (inactive) | 41 µM (inactive) | 41.7 µM (inactive) | 16.3 µM (inactive) | 49.7 µM (inactive) | 27.3 µM (inactive) | 28.1 µM (inactive) | 13.2 µM (inactive) | 52.8 µM (inactive) | 32.3 µM (inactive) |
| CCOC(=O)C(C/C=C/CO)N(C)C(=O)OC(C)(C)C (stereo not given) | > 100 µM (inactive) | > 100 µM (inactive) | 94.8 µM (inactive) | 53.5 µM (inactive) | > 100 µM (inactive) | > 100 µM (inactive) | > 100 µM (inactive) | > 100 µM (inactive) | > 100 µM (inactive) | > 100 µM (inactive) |  | > 100 µM (inactive) | 10.1 µM (inactive) | > 100 µM (inactive) | > 100 µM (inactive) | > 100 µM (inactive) | > 100 µM (inactive) | > 100 µM (inactive) | > 100 µM (inactive) |
| O=C(N/C(=C/c1ccc(Cl)cc1)c1nc2ccccc2c(=O)n1Nc1ccc([N+](=O)[O-])cc1[N+](=O)[O-])c1ccccc1 | > 100 µM (inactive) | > 100 µM (inactive) | > 100 µM (inactive) | > 100 µM (inactive) | > 100 µM (inactive) | > 100 µM (inactive) | > 100 µM (inactive) | > 100 µM (inactive) | > 100 µM (inactive) | > 100 µM (inactive) | > 100 µM (inactive) | > 100 µM (inactive) | > 100 µM (inactive) | > 100 µM (inactive) | > 100 µM (inactive) | > 100 µM (inactive) | > 100 µM (inactive) | > 100 µM (inactive) |  |
